Assay [1] concerns Human colon adenocarcinoma cell line HCT116. In words: anti-proliferation assay (Alamar Blue). The format is cell-based. Particulars: read-out: percent inhibition (% I) of cell proliferation. On the procedure:
Cells were diluted in culture media such that 3000 cells were delivered in 20 μL of media into each assay well. […] Quantification, using an LJL Analyst AD reader (LJL Biosystems), was taken in the middle of the well with high attenuation, a 100 msec read time, an excitation filter at 530 nm, and an emission filter at 575 nm. For some experiments, quantification was performed using a Wallac Victor2 reader. Measurements were taken at the top of the well with stabilized energy lamp control; a 100 msec read time, an excitation filter at […], and an emission filter at 590 nm. No significant differences between plate readers were measured. The percent inhibition (% I) for each well was calculated using the following formula: % I=[(avg. untreated wells−treated well)/(avg. untreated wells)]×100 […] Negative inhibition values result from local variations in treated wells as compared to untreated wells.
(In general: Alamar Blue is a resazurin reagent that responds to reducing activity.)

The subject of a further assay is PRL phosphatases. Particulars: Pathak et al., Mol. Cancer Ther. 2002; cited from earlier work.
Assay [2] deals with T1, Recombinant HsEg5/KSP kinesin motor protein (Homo sapiens, UniProt P52732).
T1 sequence (P52732 1-1056): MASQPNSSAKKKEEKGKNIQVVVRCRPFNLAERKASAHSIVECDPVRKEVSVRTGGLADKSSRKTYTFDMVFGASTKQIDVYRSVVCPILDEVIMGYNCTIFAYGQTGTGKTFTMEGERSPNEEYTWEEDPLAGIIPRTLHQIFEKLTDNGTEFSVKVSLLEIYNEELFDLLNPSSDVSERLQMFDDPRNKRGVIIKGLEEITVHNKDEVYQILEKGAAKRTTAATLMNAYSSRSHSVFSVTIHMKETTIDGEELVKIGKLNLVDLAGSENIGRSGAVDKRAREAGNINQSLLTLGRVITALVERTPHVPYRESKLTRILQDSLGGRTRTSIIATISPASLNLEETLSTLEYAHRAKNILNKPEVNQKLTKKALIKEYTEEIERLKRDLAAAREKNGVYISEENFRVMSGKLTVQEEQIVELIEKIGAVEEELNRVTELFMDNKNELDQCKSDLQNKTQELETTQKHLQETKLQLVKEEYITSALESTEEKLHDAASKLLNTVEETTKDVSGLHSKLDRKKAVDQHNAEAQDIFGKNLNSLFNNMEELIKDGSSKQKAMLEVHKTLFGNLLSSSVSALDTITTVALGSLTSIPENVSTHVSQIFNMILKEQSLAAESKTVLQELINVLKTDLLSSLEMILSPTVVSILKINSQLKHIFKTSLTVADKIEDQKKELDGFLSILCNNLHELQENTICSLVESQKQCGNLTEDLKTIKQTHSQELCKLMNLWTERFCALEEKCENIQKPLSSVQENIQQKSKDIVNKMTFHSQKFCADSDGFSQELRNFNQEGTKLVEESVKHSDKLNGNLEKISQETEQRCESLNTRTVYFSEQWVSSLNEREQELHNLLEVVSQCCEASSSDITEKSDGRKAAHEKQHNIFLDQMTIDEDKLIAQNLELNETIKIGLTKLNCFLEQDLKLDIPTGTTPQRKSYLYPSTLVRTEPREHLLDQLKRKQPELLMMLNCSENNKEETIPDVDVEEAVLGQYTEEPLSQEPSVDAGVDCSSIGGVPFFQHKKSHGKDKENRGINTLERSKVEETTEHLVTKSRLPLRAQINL
In words: cell free motor assay (Kinesin ATPase End Point Biochem Kit, microtubule activated ATPase activity). It is filed as biochemical. The procedure: This assay measures organic phosphate (Pi) generated during microtubule activated ATPase activity of kinesin motor proteins. Recombinant HsEg5/KSP kinesin motor protein activity was assayed using the Kinesin ATPase End Point Biochem Kit (Cytoskeleton, catalog # BK053) following the manufacturer's instructions for amounts of reaction buffer, ATP and microtubules. The amount of HsEg5/KSP kinesin protein was optimized to 0.8 μg per reaction and included where indicated. Each assay was performed in a total reaction volume of 30 μL in a clear 96 well ½ area plate (Coming Inc., Costar and cat # 3697) and included the following conditions: • 1. a reaction blank consisting of reaction buffer and ATP only; • 2. negative control reactions containing: • a. microtubules and ATP without kinesin protein or • b. kinesin HsEg5/KSP and ATP without microtubules; and • 3. experimental reactions containing ATP, kinesin, and microtubules with or without compound at the indicated final concentrations.
Reactions were pre-incubated for 15 minutes at room temperature prior to the addition of ATP. After ATP addition, reactions were allowed to proceed for 10 minutes at room temperature prior to termination by the addition of 70 μL of CytoPhos Reagent. Following a last 10-minute incubation at room temperature, reactions were quantitated by reading the absorbance at 650 nm on a spectrophotometer (Beckman Instruments, Inc., Model DU 530). Raw absorbance values were corrected by subtracting the absorbance of the blank. Absorbance was converted into Pi concentration by comparison with a standard Pi curve. Percent inhibition was calculated from Pi concentration according to the following formula: % Inhibition=(untreated-treated)/untreated×100. The arithmetic mean was generated from percent inhibition of experimental replicates.

Like-named read-outs stand apart in the source and are kept apart here.

Consider `N=C(N)c1ccc(OCCCCCOc2ccc(C(=N)N)cc2)cc1` [Pentamidine, pentamidine], for which, in assay [1] (HCT-116, chlorpromazine 0 μM, pentamidine 0.5 μM), the inhibition at 0.5 µM worked out at 1.2%. Further, in assay [1] (HCT-116, chlorpromazine 0 μM, pentamidine 1 μM), the inhibition at 1 µM stood at 1.9%. Besides, the inhibition at 2 µM in assay [1] (HCT-116, chlorpromazine 0 μM, pentamidine 2 μM) was found to be 3.1%. Moreover, the inhibition at 4 µM in assay [1] (HCT-116, chlorpromazine 0 μM, pentamidine 4 μM) was -0.77%. Besides, in assay [1] (HCT-116, chlorpromazine 0 μM, pentamidine 6 μM), the inhibition at 6 µM was determined as 5%. Besides, the inhibition at 9 µM in assay [1] (HCT-116, chlorpromazine 0 μM, pentamidine 9 μM) was 9%. Besides, the inhibition at 12 µM in assay [1] (HCT-116, chlorpromazine 0 μM, pentamidine 12 μM) is 9.9%. Further, in assay [1] (HCT-116, chlorpromazine 0 μM, pentamidine 15 μM), the inhibition at 15 µM turned out to be 16%. For the same molecule, the inhibition at 20 µM in assay [1] (HCT-116, chlorpromazine 0 μM, pentamidine 20 μM) is 19%. Moreover, the “PRL phosphatase inhibition (in words)” value in the assay with PRL phosphatases is given as “inhibitor of the PRL phosphatases”.

Take `CN(C)CCCN1c2ccccc2Sc2ccc(Cl)cc21` [Chlorpromazine, chlorpromazine]: the inhibition at 4 µM in assay [1] (HCT-116, chlorpromazine 4 μM, pentamidine 0 μM) stood at 2.9%; in assay [2] (chlorpromazine 4 μM, mean, n = 4, read-out: Percent inhibition of kinesin motor activity) it was 17.4%. In addition, the inhibition at 6 µM in assay [1] (HCT-116, chlorpromazine 6 μM, pentamidine 0 μM) came out at 0.11%. Further, the inhibition at 7.5 µM in assay [1] (HCT-116, chlorpromazine 7.5 μM, pentamidine 0 μM) came out at 5.4%. Moreover, the inhibition at 9 µM in assay [1] (HCT-116, chlorpromazine 9 μM, pentamidine 0 μM) worked out at 4.1%. Moreover, in assay [1] (HCT-116, chlorpromazine 10 μM, pentamidine 0 μM), the inhibition at 10 µM stood at 16%. Besides, in assay [1] (HCT-116, chlorpromazine 12 μM, pentamidine 0 μM), the inhibition at 12 µM turned out to be 22%. The inhibition at 16 µM is 39% in assay [1] (HCT-116, chlorpromazine 16 μM, pentamidine 0 μM) and 85.8% in assay [2] (chlorpromazine 16 μM, mean, n = 4, read-out: Percent inhibition of kinesin motor activity). Moreover, the inhibition at 20 µM in assay [1] (HCT-116, chlorpromazine 20 μM, pentamidine 0 μM) stood at 56%. Further, the inhibition at 22 µM in assay [1] (HCT-116, chlorpromazine 22 μM, pentamidine 0 μM) turned out to be 59%. For the same molecule, the “mitotic kinesin inhibition (in words)” value in assay [2] (cell free motor assay) is “mitotic kinesin inhibitor”. Besides, the inhibition at 1 µM in assay [2] (chlorpromazine 1 μM, mean, n = 4, read-out: Percent inhibition of kinesin motor activity) was -5.51%. The inhibition at 2 µM in assay [2] (chlorpromazine 2 μM, mean, n = 4, read-out: Percent inhibition of kinesin motor activity) is -11.2%. For the same molecule, the inhibition at 8 µM in assay [2] (chlorpromazine 8 μM, mean, n = 4, read-out: Percent inhibition of kinesin motor activity) turned out to be 52.9%. The inhibition at 32 µM in assay [2] (chlorpromazine 32 μM, mean, n = 4, read-out: Percent inhibition of kinesin motor activity) was 97.8%. Besides, the inhibition at 64 µM in assay [2] (chlorpromazine 64 μM, mean, n = 4, read-out: Percent inhibition of kinesin motor activity) is 105%.

The record behind these values is patent publication US20050158320A1, “Combinations for the treatment of proliferative diseases” (priority 2003, published 2005).
